Earlier results on five compounds are cited in patent US5525634A, “Colonic drug delivery system” (priority 1994, dated 1996).

The conditions of data set [1]: small intestinal mucosa / esterases.
For data set [2], the system named is morphine-dependent rats. Particulars: for time to diarrhea: direct colonic administration; for time to diarrhea / time to diarrhea, withdrawal behavior and tail skin temperature response: morphine-dependent rats; for time to diarrhea, withdrawal behavior and tail skin temperature response: oral administration.

Turning to `CC(=O)Oc1ccc(C(c2ccc(OC(C)=O)cc2)c2ccccn2)cc1` [bisacodyl], in data set [1], the “passage through / cleavage in the small intestine” value was “readily cleaved by the esterases in the small intestine”.
For `C=C1CCC2(O)C3Cc4ccc(OC5OC(C(=O)O)C(O)C(O)C5O)c5c4C2(CCN3CC2CC2)C1O5` (stereo not shown) [nalmefene glucuronide], in data set [2], the time to diarrhea was 5 to 8 min and the “activity on subcutaneous administration” value was “inactive”.
As for `C=C1CC[C@@]2(O)[C@H]3Cc4ccc(O)c5c4[C@@]2(CCN3CC2CC2)[C@H]1O5` [nalmefene], the “time to diarrhea, withdrawal behavior and tail skin temperature response” value in data set [2] is not above 15 min.
As to `C=CCN1CC[C@]23c4c5ccc(O[C@@H]6O[C@H](C(=O)O)[C@@H](O)[C@H](O)[C@H]6O)c4O[C@H]2C(=O)CC[C@@]3(O)[C@H]1C5` [naloxone glucuronide], in data set [2], the time to diarrhea is 5 to 8 min and the “activity on subcutaneous administration” value is “inactive”.
Consider `C=CCN1CC[C@]23c4c5ccc(O)c4O[C@H]2C(=O)CC[C@@]3(O)[C@H]1C5` [naloxone], for which the “time to diarrhea, withdrawal behavior and tail skin temperature response” value in data set [2] is not above 15 min.
